One data set relates to SU-DHL-10 cells. Briefly: Cell cytotoxicity in SU-DHL-10 cell line (CellTiter-Glo). The format is cell-based. Conditions: Homo sapiens, SU-DHL10; CellTiter-Glo, 48 h; read-out: SU-DHL-10 EC50. The protocol: Assay (c): Cell Cytotoxicity in SU-DHL-10 Cell Line
Cell Culture: SU-DHL-10 (ATCC CRL-2963) were cultured in RPMI-media (ATCC, 30-2001).
Cultures were maintained by the addition of fresh medium and inoculum of 8.0×10^4 to 2.0×10^5 cells/mL. Subculturing was done when the cell density was between 1.0×10^6 and 2.0×10^6 cells/mL.
Cell seeding: 5000 cells/well were plated in 384-white clear bottom plates (Greiner, 781098) for the assay in 20 μl growth media.
Top dose: 1 mM stocks of each compound was prepared in 100% DMSO and thereafter diluted 333.33 fold in growth media to obtain 3 μM (0.3% DMSO) mid stock of each compound, from which 10 μl was added to assay wells (with 20 μl cells) for a final concentration of 1 μM (0.1% DMSO). For subsequent dose-response: 1 mM stock was diluted 3 fold in DMSO before subjecting to above dilution pattern to obtain final 0.1% DMSO concentration.
Treatment: Cells were incubated with the compounds for 48 h at 37° C. in presence of 5% CO2.
Assay Procedure: The assay plate and its contents were equilibrated at room temperature for approximately 30 minutes. CellTiter-Glo® Reagent was added equal to the volume (1;1) of cell culture medium present in each well. The contents were mixed for 5 minutes on an orbital shaker to induce cell lysis. The plate was allowed to incubate at room temperature for 10 minutes to stabilize luminescent signal. The luminescence was recorded with an integration time of 0.25 seconds in EnVision 2104 Multilabel Plate Reader (Perkin Elmer).
Calculation: % Cytotoxicity was calculated considering 100% cell death in wells treated with 0.1% TritonX.

The subject of data set [1] is Plasmodium falciparum 3D7. Briefly: SYBR Green assay, Plasmodium falciparum strain 3D7. Type of data set: cell-based. Conditions: P. falciparum strain 3D7, 96 h incubation, read-out: Pf EC50 strain 3D7.
The next data set addresses Human NMT1 (HsNMT1) (Homo sapiens, UniProt P30419). Briefly: biochemical.
Data set [2] concerns the target Plasmodium vivax (Pv) NMT (Plasmodium vivax (strain Salvador I), UniProt A5K1A2). Briefly: biochemical.
Another data set can be described thus: in vitro. The conditions noted are these: male, Sprague-Dawley, rat, pooled cryopreserved rat hepatocytes, pH 7.4.

Structures are written as SMILES.

As usually defined, the EC50 is the concentration that produces a half-maximal response. As a reminder, the IC50 is the point on the concentration scale where inhibition reaches its midpoint. The low end stands for greater potency, the high end for weaker potency. For orientation: half-life means the time in which the quantity being followed falls by half. A lower half-life goes with rapid decline.

Sequence of Human NMT1 (HsNMT1) (P30419 whole entry, looked up): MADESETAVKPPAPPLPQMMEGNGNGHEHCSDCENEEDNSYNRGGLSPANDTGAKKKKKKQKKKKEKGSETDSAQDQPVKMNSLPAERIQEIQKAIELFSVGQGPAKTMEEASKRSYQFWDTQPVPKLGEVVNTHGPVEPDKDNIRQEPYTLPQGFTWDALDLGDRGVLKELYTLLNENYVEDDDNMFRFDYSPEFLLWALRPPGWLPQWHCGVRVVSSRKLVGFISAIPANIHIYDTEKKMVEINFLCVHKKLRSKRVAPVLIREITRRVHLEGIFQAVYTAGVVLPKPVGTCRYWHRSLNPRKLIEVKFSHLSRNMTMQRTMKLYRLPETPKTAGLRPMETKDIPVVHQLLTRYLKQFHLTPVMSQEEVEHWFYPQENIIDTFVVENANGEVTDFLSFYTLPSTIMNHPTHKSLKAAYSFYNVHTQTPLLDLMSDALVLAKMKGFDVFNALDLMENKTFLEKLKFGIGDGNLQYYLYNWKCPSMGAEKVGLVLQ
Sequence of Plasmodium vivax (Pv) NMT (A5K1A2 1-410): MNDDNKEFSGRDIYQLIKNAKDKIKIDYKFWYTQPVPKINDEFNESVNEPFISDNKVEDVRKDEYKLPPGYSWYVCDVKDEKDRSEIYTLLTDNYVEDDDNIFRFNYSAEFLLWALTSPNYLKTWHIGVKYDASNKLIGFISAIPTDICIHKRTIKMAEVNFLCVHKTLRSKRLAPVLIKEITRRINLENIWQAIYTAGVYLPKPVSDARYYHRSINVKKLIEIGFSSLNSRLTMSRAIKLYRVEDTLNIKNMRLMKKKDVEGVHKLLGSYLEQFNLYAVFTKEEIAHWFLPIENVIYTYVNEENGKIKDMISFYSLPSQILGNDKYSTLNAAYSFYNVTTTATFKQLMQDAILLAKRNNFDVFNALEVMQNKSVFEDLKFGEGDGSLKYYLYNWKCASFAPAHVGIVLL
Experimental for in vitro: Assay (e): Rat Hepatocyte Half Life
Certain example compound of the present invention were tested for metabolic stability in rat metabolic assays using hepatocytes derived from pooled male Sprague-Dawley rats.
Frozen pooled rat hepatocytes obtained from LifeTechnologies were thawed and purified according to the manufacturer's instructions. The test compound (4 mM) in DMSO was diluted with acetonitrile to provide a 100 μM sub-stock then further diluted with pH 7.4 Krebs-Henseleit buffer (supplemented with CaCl2, NaHCO3, HEPES, fructose and glycine) to provide a 2 μM working solution. 25 μL of working solution was incubated at 37° C., treated with 25 μL of rat hepatocyte suspension (containing 1×10^6 cells/mL) and incubated at 37° C. with 5% CO2 level at 95% relative humidity. Wells were incubated for an appropriate time (0, 15, 30, 45, 60 and 75 min) then quenched with 250 μL of acetonitrile containing reference standards diltiazem, 7-ethoxycoumarin and propranolol). The plates were shaken, sonicated for 5 min then cooled to 4° C. until all sampling was complete. All plates were centrifuged at 4000 rpm for 20 min to pellet the debris. 110 μL supernatant was diluted 110 μL water and quantitated using LC-MS/MS.
A linear regression curve was fitted to a plot of natural logarithm (In) of AUC against time. The T-half (min)=0.693/slope

For the compound `C[C@@H]1CN(c2ncc(Cl)c(N3CC(C(=O)NC(C)(C)c4cnc5ccccn45)C3)n2)CCN1` [Example 1, 1-{5-chloro-2-[(3R)-3-methylpiperazin-1-y]pyrimidin-4-yl}-N-(2-{imidazo[1,2-a]pyridin-3-yl}propan-2-yl)azetidine-3-carboxamide], the concentration for a half-maximal effect (EC50) was 367 nM with SU-DHL-10 cells and 6.3 nM in data set [1]. Further, the IC50 against Human NMT1 (HsNMT1) is 3 nM; in data set [2] it was 6.6 nM.
Take `CN1CCN(c2cc(N3CC(C(=O)NC(C)(C)c4cnc5ccccn45)C3)c(F)cn2)CC1` [Example 4, 1-[5-fluoro-2-(4-methylpiperazin-1-yl)pyridin-4-yl]-N-(2-{imidazo[1,2-a]pyridin-3-yl}propan-2-yl)azetidine-3-carboxamide]: in data set [1], the EC50 amounted to 100 nM. In the data set “in vitro”, the half-life at 1 µM was more than 3 h.
Turning to `CC(C)(NC(=O)C1CN(c2nc(N3CCNCC3)ncc2Cl)C1)c1cnc2ccccn12` [Example 33], the values for the concentration giving a half-maximal response (EC50) (in the data set with SU-DHL-10 cells; in data set [1]) were 878 nM and 18 nM, respectively. Besides, the results for the half-inhibitory concentration (IC50) (against Human NMT1 (HsNMT1); in data set [2]) were 3.5 nM and 6.6 nM, respectively.
`CC1CN(c2ncc(Cl)c(N3CC(C(=O)NC(C)(C)c4cnc5ccccn45)C3)n2)C[C@H](C)N1` (some centres unmarked) [Example 48]: the figures for the EC50 (with SU-DHL-10 cells; in data set [1]) were 795 nM and 65 nM, respectively.
The matching figures for `CC1CNCCN1c1ncc(Cl)c(N2CC(C(=O)N(C)C(C)(C)c3cnc4ccccn34)C2)n1` (centres unmarked) [Example 50]: 35 nM and 26 nM.
In the case of `CN(C(=O)C1CN(c2nc(N3CC4CCC(C3)N4)ncc2Cl)C1)C(C)(C)c1cnc2ccccn12` [Example 133, 1-(2-(3,8-diazabicyclo[3.2.1]octan-3-yl)-5-chloropyrimidin-4-yl)-N-(2-(imidazo[1,2-a]pyridin-3-yl)propan-2-yl)-N-methylazetidine-3-carboxamide], the EC50 in the data set on SU-DHL-10 cells turned out to be 409 nM. This compound showed an IC50 against Human NMT1 (HsNMT1) of 62 nM.
As to `CC1NCCN(c2ncc(Cl)c(N3CC(C(=O)N(C)C(C)(C)c4cnc5ccccn45)C3)n2)C1C` (centres unmarked) [Example 134, 1-(5-chloro-2-(2,3-dimethylpiperazin-1-yl)pyrimidin-4-yl)-N-(2-(Imidazo[1,2-a]pyridin-3-yl)propan-2-yl)-N-methylazetidine-3-carboxamide], the EC50 in the data set with SU-DHL-10 cells is 106 nM. This compound also yielded an IC50 on Human NMT1 (HsNMT1) of 5 nM.
The like results for `C[C@H]1CNCCN1c1ncc(C(F)(F)F)c(N2CC(C(=O)N(C)C(C)(C)c3cnc4ccccn34)C2)n1` [Example 135, (S)—N-(2-(imidazo[1,2-a]pyridin-3-yl)propan-2-yl)-N-methyl-1-(2-(2-methylpiperazin-1-yl)-5-(trifluoromethyl)pyrimidin-4-yl)azetidine-3-carboxamide] were, in that order, 767 nM and 27 nM.
The like results for `CCN(C(=O)C1CN(c2nc(N3CCNCC3)ncc2Cl)C1)C(C)(C)c1cnc2ccccn12` [Example 136, 1-(5-chloro-2-(piperazin-1-yl)pyrimidin-4-yl)-N-ethyl-N-(2-(imidazo[1,2-a]pyridin-3-yl)propan-2-yl)azetidine-3-carboxamide] were, in that order, 161 nM and 7 nM.
With `CCC1CN(c2ncc(Cl)c(N3CC(C(=O)NC(C)(C)c4cnc5ccccn45)C3)n2)CCN1` (centres unmarked) [Example 137, 1-(5-chloro-2-(3-ethylpiperazin-1-yl)pyrimidin-4-yl)-N-(2-(imidazo[1,2-a]pyridin-3-yl)propan-2-yl)azetidine-3-carboxamide], the EC50 in the data set with SU-DHL-10 cells stood at 218 nM. The compound also showed an IC50 on Human NMT1 (HsNMT1) of 3 nM.
The matching figures for `C[C@@H]1CNCCN1c1ncc(Cl)c(N2CC(C(=O)N(C)C(C)(C)c3cnc4ccccn34)C2)n1` [Example 138, (R)-1-(5-chloro-2-(2-methylpiperazin-1-yl)pyrimidin-4-yl)-N-(2-(Imidazo[1,2-a]pyridin-3-yl)propan-2-yl)-N-methylazetidine-3-carboxamide]: 742 nM and 15 nM.
The like results for `C[C@@H]1CNCCN1c1ncc(Cl)c(N2CC(C(=O)NC(C)(C)c3cnc4ccccn34)C2)n1` [Example 141, (R)-1-(5-chloro-2-(2-methylpiperazin-1-yl)pyrimidin-4-yl)-N-(2-(Imidazo[1,2-a]pyridin-3-yl)propan-2-yl)azetidine-3-carboxamide] were, in that order, 378 nM and 4 nM.
With `C[C@@H]1CN(C)CCN1c1ncc(Cl)c(N2CC(C(=O)N(C)C(C)(C)c3cnc4ccccn34)C2)n1` [Example 142, (R)-1-(5-chloro-2-(2,4-dimethylpiperazin-1-yl)pyrimidin-4-yl)-N-(2-(imidazo[1,2-a]pyridin-3-yl)propan-2-yl)-N-methylazetidine-3-carboxamide], the EC50 in the data set on SU-DHL-10 cells stood at 489 nM. In addition, at Human NMT1 (HsNMT1), half-maximal inhibition (IC50) was put at 178 nM.
The matching figures for `CC1NCCN(c2ncc(Cl)c(N3CC(C(=O)NC(C)(C)c4cnc5ccccn45)C3)n2)C1C` (centres unmarked) [Example 143, 1-(5-chloro-2-(2,3-dimethylpiperazin-1-yl)pyrimidin-4-yl)-N-(2-(Imidazo[1,2-a]pyridin-3-yl)propan-2-yl)azetidine-3-carboxamide]: 5 nM and 3 nM.
The matching figures for `CC(C)(NC(=O)C1CN(c2nc(N3CC4CCC(C3)N4)ncc2Cl)C1)c1cnc2ccccn12` [Example 144, 1-(2-(3,8-diazabicyclo[3.2.1]octan-3-yl)-5-chloropyrimidin-4-yl)-N-(2-(imidazo[1,2-a]pyridin-3-yl)propan-2-yl)azetidine-3-carboxamide]: 243 nM and 5 nM.
For `CCN(C(=O)C1CN(c2nc(N3CCNC[C@@H]3C)ncc2Cl)C1)C(C)(C)c1cnc2ccccn12` [Example 145, (S)-1-(5-chloro-2-(2-methylpiperazin-1-yl)pyrimidin-4-yl)-N-ethyl-N-(2-(imidazo[1,2-a]pyridin-3-yl)propan-2-yl)azetidine-3-carboxamide], in the data set with SU-DHL-10 cells, the EC50 is 13 nM. The 50% inhibitory concentration (IC50) on Human NMT1 (HsNMT1) came to 3 nM.
The matching figures for `CN(C(=O)C1CN(c2nc(N3CCNC4CC43)ncc2Cl)C1)C(C)(C)c1cnc2ccccn12` (centres unmarked) [Example 146, 1-(2-(2,5-diazabicyclo[4.1.0]heptan-2-yl)-5-chloropyrimidin-4-yl)-N-(2-(imidazo[1,2-a]pyridin-3-yl)propan-2-yl)-N-methylazetidine-3-carboxamide]: 597 nM and 61 nM.
The like results for `CC[C@H]1CNCCN1c1ncc(Cl)c(N2CC(C(=O)NC(C)(C)c3cnc4ccccn34)C2)n1` [Example 147, (S)-1-(5-chloro-2-(2-ethylpiperazin-1-yl)pyrimidin-4-yl)-N-(2-(imidazo[1,2-a]pyridin-3-yl)propan-2-yl)azetidine-3-carboxamide] were, in that order, 12 nM and 2 nM.
With `CC[C@H]1CNCCN1c1ncc(Cl)c(N2CC(C(=O)N(C)C(C)(C)c3cnc4ccccn34)C2)n1` [Example 148, (S)-1-(5-chloro-2-(2-ethylpiperazin-1-yl)pyrimidin-4-yl)-N-(2-(Imidazo[1,2-a]pyridin-3-yl)propan-2-yl)-N-methylazetidine-3-carboxamide], in the data set with SU-DHL-10 cells, the concentration for a half-maximal effect (EC50) was determined as 369 nM. This compound also displayed an IC50 against Human NMT1 (HsNMT1) of 5 nM.
For the compound `C[C@H]1CN(c2ncc(Cl)c(N3CC(C(=O)NC(C)(C)c4cnc5ccccn45)C3)n2)[C@@H](C)CN1` [Example 151, 1-(5-chloro-2-((2S,5S)-2,5-dimethylpiperazin-1-yl)pyrimidin-4-yl)-N-(2-(imidazo[1,2-a]pyridin-3-yl)propan-2-yl)azetidine-3-carboxamide], the concentration giving a half-maximal response (EC50) in the data set on SU-DHL-10 cells was found to be 15 nM. The compound further gave an IC50 at Human NMT1 (HsNMT1) of 2 nM.
The matching figures for `C[C@H]1CN(c2ncc(Cl)c(N3CC(C(=O)NC(C)(C)c4cnc5ccccn45)C3)n2)[C@@H](C)CN1C` [Example 152, 1-(5-chloro-2-((2S,5S)-2,4,5-trimethylpiperazin-1-yl)pyrimidin-4-yl)-N-(2-(imidazo[1,2-a]pyridin-3-yl)propan-2-yl)azetidine-3-carboxamide]: 306 nM and 8 nM.
As for `C[C@@H]1CN(c2ncc(Cl)c(N3CC(C(=O)NC(C)(C)c4cnc5ccccn45)C3)n2)[C@@H](C)CN1` [Example 153, 1-(5-chloro-2-((2S,5R)-2,5-dimethylpiperazin-1-yl)pyrimidin-4-yl)-N-(2-(imidazo[1,2-a]pyridin-3-yl)propan-2-yl)azetidine-3-carboxamide], the EC50 in the data set on SU-DHL-10 cells came out at 54 nM. The IC50 against Human NMT1 (HsNMT1) was found to be 3 nM.
The like results for `C[C@@H]1CN(c2ncc(Cl)c(N3CC(C(=O)NC(C)(C)c4cnc5ccccn45)C3)n2)[C@@H](C)CN1C` [Example 154, 1-(5-chloro-2-((2S,5R)-2,4,5-trimethylpiperazin-1-yl)pyrimidin-4-yl)-N-(2-(imidazo[1,2-a]pyridin-3-yl)propan-2-yl)azetidine-3-carboxamide] were, in that order, 453 nM and 10 nM.

The values are drawn from patent US20240166643A1, “IMIDAZO[1,2-A]PYRIDINE COMPOUNDS AND THEIR USE IN THERAPY” (Imperial College Innovations Limited, priority 2020, published 2024).
